From patent publication US11117931B2, “Antimicrobial peptide derived from Hp1404 peptide and uses thereof” (priority 2017, dated 2021)
Where no end group is shown, it is not given here.

Experiments:
[1] = system: S. aureus or P. aeruginosa membrane; test: Flow cytometry with propidium iodide; assay type: cell-based; conditions: 2×MIC, 1 hour at 37° C.
Description: Specifically, S. aureus or P. aeruginosa was treated for 1 hour at 37° C. with the mother peptide Hp1404, or Hp1404-T1c, Hp1404-T1d or Hp1404-T1e peptide (at concentration of 2×MIC). After that, the supernatant was removed by centrifuge (10,000 rpm) and stained with propidium iodide (PI, concentration of 10 μg/ml) for 30 minutes at 4° C. Thereafter, unbound propidium iodide was removed by centrifuge, and the problem of cell aggregation phenomenon was solved by adding physiological saline (PBS) in an amount of 1 ml.

[2] = system: outer membrane of P. aeruginosa; test: Outer membrane effect (NPN fluorescence); assay type: cell-based; conditions: peptide at 1×, 2× or 4×MIC
Description: By using the peptides prepared by the method of Example 1, effect of the peptide on the outer membrane and inner membrane of bacteria was examined. […] However, once the hydrophobic part is exposed as a result of damage occurring in cell wall, NPN emits fluorescence. After culturing each strain in TSB and NB medium, the strain was adjusted such that it has OD600 value of 0.2 in 5 mM HEPES buffer solution. After allowing the reaction to occur between 10 μM NPN dissolved in 95% ethanol and the bacteria by adding them in a 96-well black plate, the peptide at a concentration of 1×, 2× or 4×MIC and 0.1% Triton X-100 were further added, and then the fluorescence was measured.

S. aureus = test: MIC, S. aureus; assay type: cell-based, Staphylococcus aureus; conditions: S. aureus (ATCC 25923), 18 hours at 37° C.
Description: To compare the antimicrobial activity among the peptides produced by the method of Example 1, the inventors of the present invention measured the minimal growth inhibitory concentration (MIC), which is minimum concentration of the peptide showing no dissociation of bacterial cells.
Specifically, the bacterial strain described in the following Table 2 was purchased and cultured to a mid-log phase in each medium with a composition suitable for each strain. Then, after dilution to bacterial cell concentration of 2×10^4 cells/100 μl, the cells were inoculated to a microtiter plate (NUNC, USA). Thereafter, Hp1404-T1, Hp1404-T1a, Hp1404-T1b, Hp1404-T1c, Hp1404-T1d or Hp1404-T1e peptide which has been synthesized in Example 1 above was subjected to serial dilution, ½ times for each, with BSA (bovine serum albumin) solution in a 96-well plate. After adding the cells to a plate, the cells were cultured for 18 hours at 37° C. By using a microtiter plate reader (Merck Elisa reader, Germany), the absorbance was measured at a wavelength of 600 nm to determine the MIC value of each bacterial strain. As a control group, Hp1404 as a mother peptide was used.

S. aureus (ATCC 25923) = test: Anti-biofilm activity (crystal violet); assay type: cell-based, Staphylococcus aureus; conditions: 24 hours at 37° C.
Description: To compare the antimicrobial activity among the peptides produced by the method of Example 1, the inventors of the present invention measured the biofilm inhibitory concentration value of the peptide showing no dissociation of bacterial cells.
Specifically, among the bacterial strains described in the above Table 2, bacteria showing favorable biofilm forming were cultured to a mid-log phase in each medium. Then, after dilution to bacterial cell concentration of 5×10^4 cells/100 μl, the cells were inoculated to a microtiter plate (PSL). Thereafter, Hp1404, Hp1404-T1c, Hp1404-T1d or Hp1s404-T1e peptide which has been synthesized in Example 1 above was diluted, 1/10 times for each, with 10 mM sodium phosphate (pH 7.2) solution in a 96-well plate. After adding the cells (10 μl) to a plate, the cells were cultured for 24 hours at 37° C. After removing the supernatant completely, the cells were fixed with 100% methanol for 15 minutes and reacted for 1 hour with Crystal violet staining solution followed by rinsing for 3 times. Then, after dissolving in 95% ethanol, the absorbance was measured at a wavelength of 595 nm by using a microtiter plate reader to determine the biofilm minimal inhibitory concentration value of each bacterial strain.

[3] = system: lipopolysaccharide (LPS) isolated from P. aeruginosa; test: Binding ability between lipopolysaccharide (LPS) and peptide; conditions: peptide at 1×MIC
Description: By using the peptides prepared by the method of Example 1, binding to lipopolysaccharide (LPS), which is a constitutional component of a cell wall of Gram-negative bacteria, was examined. LPS used in the present invention was isolated from P. aeruginosa. Lipopolysacchride (0 to 100 μg/ml) was diluted with 10 mM sodium phosphate buffer (pH 7.2), reacted with each peptide at a concentration of 1× or 2×MIC, and then cultured with the bacteria at 2×10^5 CFU/ml. By measuring the absorbance at 600 nm, the binding ability to the peptide was determined. Additionally, after reacting 0.1% […] with the peptide (40 μM) in an incubator, the secondary structure was examined by circular dichroism (CD) spectroscopy.

[4] = system: Pseudomonas aeruginosa strain 1034; test: In vivo antimicrobial activity, infected skin wound; design: species or system BALB/c mouse; number of colonies from skin tissues: reference not given here; conditions: intracutaneous
Description: By using Hp1404-T1e found to have the most excellent antimicrobial activity among the peptides that are prepared by the method of Example 1, in vivo antimicrobial activity was measured. Specifically, among the Pseudomonas aeruginosa strains, strain 1034 was selected and tested. The strain was prepared by washing 3 times with PBS buffer. Ciprofloxacin antibiotic was used as a control group. A BALB/c mouse (6 week old) was shaved clean and a wound with pre-determined size was created thereon. Then, the wound site was injected intracutaneously with Pseudomonas aeruginosa strain 1034 ([…], 2×10^5 CFU/ml). After the bacterial infection, the peptide and antibiotic, each prepared at a concentration of 0.1 mg/ml and 0.2 mg/ml, respectively, were intracutaneously injected, and the observation was made everyday. On each day, the skin tissues were sampled and smeared on an NB solid medium. The smeared medium was incubated in an incubator for 18 hours, and the number of grown colonies was counted and expressed in %.

Substance | propidium iodide fluorescence signal shift (membrane damage) [1] | NPN fluorescence (effect on outer membrane) [2] | Minimal inhibitory concentration (S. aureus) [µM] | Biofilm minimal inhibitory concentration (S. aureus (ATCC 25923)) [µM] | binding to LPS, rank order [3] | wound healing ([4]; 0.1 mg/ml and 0.2 mg/ml, observed everyday) | number of colonies from skin tissues ([4]; Day 5, 0.1 mg/ml treatment condition) [%] | number of colonies from skin tissues ([4]; Day 5, 0.2 mg/ml treatment condition) [%]
GILGKLWEGVKSIF-NH2 [Hp1404] | bacteria membrane was damaged | increases in treatment concentration-dependent manner | 3.13 | 3.13 | binding to LPS increases in order of Hp1404-T1e, Hp1404-T1d, Hp1404-T1c, and Hp1404 | – | – | –
ILKKLLKKVKKI-NH2 [Hp1404-T1e] | no such shift of fluorescence signal | – | 3.13 | 12.5 | binding to LPS increases in order of Hp1404-T1e, Hp1404-T1d, Hp1404-T1c, and Hp1404 | wound healing effect in peptide concentration-dependent manner | 40 | 20
ILKKLLKKVKSI-NH2 [Hp1404-T1d] | no such shift of fluorescence signal | – | 6.25 | 6.25 | binding to LPS increases in order of Hp1404-T1e, Hp1404-T1d, Hp1404-T1c, and Hp1404 | – | – | –
